Values of other authors as cited in patent publication US20200222451A1, “Composition” (Optibiotix Limited, priority 2017, published 2020).

Conditions: compared to placebo

chromium picolinate
fat cravings (P<0.0001): reduces | food intake (P<0.0001): reduces | hunger levels (P<0.05): reduces | body weight (P<0.08): decrease
